{
  "source": "PubChem BioAssay AID248",
  "about": "(DTP/NCI, 2004)",
  "tested_on": "L1210 leukemia ip in BDF1 mice, survival T/C",
  "test": "NCI In Vivo Anticancer Drug Screen. Data for tumor model L1210 Leukemia (intraperitoneal) in B6D2F1 (BDF1) mice",
  "conditions": "endpoint: mean survival time, higher = longer survival",
  "in_short": "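Survival endpoint. Drug-treated group vs vehicle group, expressed as T divided by C. Tumor passaged by transplantation.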",
  "key": {"[1]": {"conditions": "dose: 200.0 mg/kg/injection, schedule: Q04DX003 (ip), vehicle: saline with Tween-80"}, "[2]": {"conditions": "dose: 100.0 mg/kg/injection, schedule: Q01DX009 (ip), vehicle: saline with Tween-80"}, "[3]": {"conditions": "dose: 200.0 mg/kg/injection, schedule: Q01DX009 (ip), vehicle: saline with Tween-80"}, "[4]": {"conditions": "dose: 400.0 mg/kg/injection, schedule: Q01DX009 (ip), vehicle: saline with Tween-80"}},
  "note": "Several values for one entry are separate records, joined by “and”; a condition that tells them apart may be missing. Equal entries are not always repeated. Inconclusive results and toxic doses are left out.",
  "data": [
    {"smiles": "NC(Cc1c[nH]c2cc(N(CCCl)CCCl)ccc12)C(=O)O", "note": "(centres undefined)", "values": [
      {"measurement": "T/C", "setting": "dose: 0.25 mg/kg/injection, schedule: Q01DX Z (ip), vehicle: other", "value": "171 % of control"},
      {"measurement": "T/C", "setting": "dose: 0.5 mg/kg/injection, schedule: Q01DX Z (ip), vehicle: other", "value": "188 % of control"},
      {"measurement": "T/C", "setting": "dose: 125.0 micrograms/kg/injection, schedule: Q01DX009 (ip), vehicle: carboxymethylcellulose (CMC)", "value": "118 % of control"},
      {"measurement": "T/C", "setting": "dose: 500.0 micrograms/kg/injection, schedule: Q01DX009 (ip), vehicle: carboxymethylcellulose (CMC)", "value": "167 % of control"},
      {"measurement": "T/C", "setting": "dose: 1000.0 micrograms/kg/injection, schedule: Q01DX009 (ip), vehicle: carboxymethylcellulose (CMC)", "value": "229 % of control"}
    ]},
    {"smiles": "CC1=CC(C)(C(Cl)(Cl)Cl)C=C/C1=N\\OC(C)C(=O)O", "note": "(centres undefined)", "values": [
      {"measurement": "T/C", "setting": "dose: 75.0 mg/kg/injection, schedule: Q01DX001 (ip), vehicle: carboxymethylcellulose (CMC)", "value": "95 % of control"},
      {"measurement": "T/C", "setting": "dose: 100.0 mg/kg/injection, schedule: Q04DX003 (ip), vehicle: saline", "value": "106 % of control"},
      {"measurement": "T/C", "setting": "dose: 150.0 mg/kg/injection, schedule: Q01DX001 (ip), vehicle: carboxymethylcellulose (CMC)", "value": "106 % of control"},
      {"measurement": "T/C", "setting": "dose: 200.0 mg/kg/injection, schedule: Q04DX003 (ip), vehicle: saline", "value": "95 % of control"},
      {"measurement": "T/C", "setting": "dose: 400.0 mg/kg/injection, schedule: Q04DX003 (ip), vehicle: saline", "value": "97 % of control"}
    ]},
    {"smiles": "CC[N+](C)(CC)c1ccc(/C=N\\N(C)C)cc1", "values": [
      {"measurement": "T/C", "setting": "dose: 6.25 mg/kg/injection, schedule: Q01DX009 (ip), vehicle: Klucel (hydroxypropylcellulose) (HPC)", "value": "96 % of control"},
      {"measurement": "T/C", "setting": "dose: 12.5 mg/kg/injection, schedule: Q01DX009 (ip), vehicle: Klucel (hydroxypropylcellulose) (HPC)", "value": "108 % of control"},
      {"measurement": "T/C", "setting": "dose: 25.0 mg/kg/injection, schedule: Q01DX009 (ip), vehicle: Klucel (hydroxypropylcellulose) (HPC)", "value": "86 % of control"}
    ]},
    {"smiles": "Nc1cc(Cl)c(Cl)c(Cl)c1", "values": [
      {"measurement": "T/C", "setting": "dose: 88.8 mg/kg/injection, schedule: Q01DX001 (ip), vehicle: carboxymethylcellulose (CMC)", "value": "97 % of control and 100 % of control"},
      {"measurement": "T/C", "setting": "dose: 100.0 mg/kg/injection, schedule: Q01DX001 (ip), vehicle: carboxymethylcellulose (CMC)", "value": "91 % of control"},
      {"measurement": "T/C", "setting": "dose: 133.4 mg/kg/injection, schedule: Q01DX001 (ip), vehicle: carboxymethylcellulose (CMC)", "value": "94 % of control and 100 % of control"},
      {"measurement": "T/C", "setting": "dose: 300.0 mg/kg/injection, schedule: Q01DX001 (ip), vehicle: carboxymethylcellulose (CMC)", "value": "97 % of control and 91 % of control"},
      {"measurement": "T/C", "setting": "dose: 400.0 mg/kg/injection, schedule: Q01DX001 (ip), vehicle: carboxymethylcellulose (CMC)", "value": "91 % of control"}
    ]},
    {"smiles": "CN(C)c1ccc(/C=N/NC(=S)Nc2cccc3cccnc23)cc1", "values": [
      {"measurement": "T/C", "setting": "dose: 100.0 mg/kg/injection, schedule: Q01DX001 (ip), vehicle: saline", "value": "105 % of control"},
      {"measurement": "T/C", "setting": "dose: 200.0 mg/kg/injection, schedule: Q01DX001 (ip), vehicle: saline", "value": "102 % of control"},
      {"measurement": "T/C", "setting": "dose: 400.0 mg/kg/injection, schedule: Q01DX001 (ip), vehicle: saline", "value": "96 % of control"}
    ]},
    {"smiles": "CN(C)c1ccc(/C=N/NC(N)=S)nc1", "values": [
      {"measurement": "T/C", "setting": "dose: 5.0 mg/kg/injection, schedule: Q03HX032 (ip), vehicle: saline with Tween-80", "value": "116 % of control"},
      {"measurement": "T/C", "setting": "dose: 12.0 mg/kg/injection, schedule: Q03HX032 (ip), vehicle: saline with Tween-80", "value": "158 % of control"},
      {"measurement": "T/C", "setting": "dose: 18.0 mg/kg/injection, schedule: Q03HX032 (ip), vehicle: saline with Tween-80", "value": "188 % of control and 320 % of control"},
      {"measurement": "T/C", "setting": "dose: 19.0 mg/kg/injection, schedule: Q04DX003 (ip), vehicle: saline with Tween-80", "value": "110 % of control"},
      {"measurement": "T/C", "setting": "dose: 44.0 mg/kg/injection, schedule: Q04DX003 (ip), vehicle: saline with Tween-80", "value": "162 % of control"},
      {"measurement": "T/C", "setting": "dose: 67.0 mg/kg/injection, schedule: Q04DX003 (ip), vehicle: saline with Tween-80", "value": "118 % of control"},
      {"measurement": "T/C", "setting": "[1]", "value": "113 % of control"}
    ]},
    {"smiles": "O=C(Nc1ccc(Cl)c([N+](=O)[O-])c1)OCCOc1ccccc1", "values": [
      {"measurement": "T/C", "setting": "[2]", "value": "101 % of control"},
      {"measurement": "T/C", "setting": "dose: 100.0 mg/kg/injection, schedule: Q04DX003 (ip), vehicle: saline with Tween-80", "value": "110 % of control"},
      {"measurement": "T/C", "setting": "[3]", "value": "110 % of control"},
      {"measurement": "T/C", "setting": "[1]", "value": "105 % of control"},
      {"measurement": "T/C", "setting": "[4]", "value": "106 % of control"},
      {"measurement": "T/C", "setting": "dose: 400.0 mg/kg/injection, schedule: Q04DX003 (ip), vehicle: saline with Tween-80", "value": "100 % of control"}
    ]},
    {"smiles": "Cc1cc(OCc2nc(N)nc(N)c2-c2ccc(Cl)c(Cl)c2)ccc1NC(=O)c1ccc(S(=O)(=O)F)cc1", "values": [
      {"measurement": "T/C", "setting": "dose: 75.0 mg/kg/injection, schedule: Q01DX001 (ip), vehicle: saline with Tween-80", "value": "100 % of control"}
    ]},
    {"smiles": "COC(=O)CCCCCC(O)C1CCC2OC(=O)CC21C", "note": "(centres undefined)", "values": [
      {"measurement": "T/C", "setting": "[2]", "value": "95 % of control"},
      {"measurement": "T/C", "setting": "dose: 100.0 mg/kg/injection, schedule: Q04DX003 (ip), vehicle: Klucel (hydroxypropylcellulose) (HPC)", "value": "94 % of control"},
      {"measurement": "T/C", "setting": "[3]", "value": "95 % of control"},
      {"measurement": "T/C", "setting": "dose: 200.0 mg/kg/injection, schedule: Q04DX003 (ip), vehicle: Klucel (hydroxypropylcellulose) (HPC)", "value": "100 % of control"},
      {"measurement": "T/C", "setting": "[4]", "value": "91 % of control"},
      {"measurement": "T/C", "setting": "dose: 400.0 mg/kg/injection, schedule: Q04DX003 (ip), vehicle: Klucel (hydroxypropylcellulose) (HPC)", "value": "93 % of control"}
    ]},
    {"smiles": "COc1ccc(NC(=O)CC(C)C(=O)O)cc1", "note": "(centres undefined)", "values": [
      {"measurement": "T/C", "setting": "[2]", "value": "102 % of control"},
      {"measurement": "T/C", "setting": "[3]", "value": "90 % of control"},
      {"measurement": "T/C", "setting": "[4]", "value": "104 % of control"}
    ]}
  ]
}
